In patent US9458137B2, “Substituted indol-5-ol derivatives and their therapeutical applications” (NantBioScience, Inc., priority 2012, dated 2016):

Assays:
Assay in all cases: Kinase panel activity
Format in all cases: biochemical
Details in all cases: 0.1 μM, ATP Km
Src(T341M)(h) = target: T1, Src(T341M)(h) (Homo sapiens, UniProt P12931, T341M)
T1 construct: purchased Millipore (KinaseProfiler service)
Method: (§1) The effect of NTW-3475 on kinase activity was tested for a wide range of kinases and is shown in Table 2: Summary Sheet, Activity % ATP Concentration: Km

Mer(h) = target: T2, Mer(h) (Homo sapiens, UniProt Q12866)
T2 construct: purchased Millipore (KinaseProfiler service)
Method: as §1

ASK1(h) = ASK1(h) (Homo sapiens, UniProt Q99683)
Method: as §1

PKGIβ(h) = PKGIβ(h) (Homo sapiens, UniProt Q13976)
Method: as §1

SAPK2a(h) = target: T3, SAPK2a(h) (Homo sapiens, UniProt Q16539)
T3 construct: purchased Millipore (KinaseProfiler service)
Method: as §1

ROCK-II(h) = target: T4, ROCK-II(h) (Homo sapiens, UniProt O75116)
T4 construct: purchased Millipore (KinaseProfiler service)
Method: as §1

Tec(h) activated = target: T5, Tec(h) activated (Homo sapiens, UniProt P42680)
T5 construct: purchased Millipore (KinaseProfiler service)
Method: as §1

CK2(h) = CK2(h) (Homo sapiens, UniProt P68400)
Method: as §1

EphB2(h) = target: T6, EphB2(h) (Homo sapiens, UniProt P29323)
T6 construct: purchased Millipore (KinaseProfiler service)
Method: as §1

PKCδ(h) = PKCδ(h) (Homo sapiens, UniProt Q05655)
Method: as §1

CSK(h) = CSK(h) (Homo sapiens, UniProt P41240)
Method: as §1

Ros(h) = target: T7, Ros(h) (Homo sapiens, UniProt P08922)
T7 construct: purchased Millipore (KinaseProfiler service)
Method: as §1

PDGFRα(V561D)(h) = PDGFRα(V561D)(h) (Homo sapiens, UniProt P16234, V561D)
Method: as §1

mTOR/FKBP12(h) = mTOR/FKBP12(h) (Homo sapiens, UniProt P42345)
Method: as §1

Bmx(h) = Bmx(h) (Homo sapiens, UniProt P51813)
Method: as §1

RIPK2(h) = target: T8, RIPK2(h) (Homo sapiens, UniProt O43353)
T8 construct: purchased Millipore (KinaseProfiler service)
Method: as §1

TGFBR1(h) = target: T9, TGFBR1(h) (Homo sapiens, UniProt P36897)
T9 construct: purchased Millipore (KinaseProfiler service)
Method: as §1

Ab1(Y253F)(h) = Ab1(Y253F)(h) (Homo sapiens, UniProt P00519, Y253F)
Method: as §1

Fyn(h) = Fyn(h) (Homo sapiens, UniProt P06241)
Method: as §1

Aurora-B(h) = Aurora-B(h) (Homo sapiens, UniProt Q96GD4)
Method: as §1

HIPK2(h) = HIPK2(h) (Homo sapiens, UniProt Q9H2X6)
Method: as §1

Tie2(Y897S)(h) = target: T10, Tie2(Y897S)(h) (Homo sapiens, UniProt Q02763, Y897S)
T10 construct: purchased Millipore (KinaseProfiler service)
Method: as §1

Ret(V804L)(h) = target: T11, Ret(V804L)(h) (Homo sapiens, UniProt P07949, V804L)
T11 construct: purchased Millipore (KinaseProfiler service)
Method: as §1

Fes(h) = target: T12, Fes(h) (Homo sapiens, UniProt P07332)
T12 construct: purchased Millipore (KinaseProfiler service)
Method: as §1

SRPK1(h) = target: T13, SRPK1(h) (Homo sapiens, UniProt Q96SB4)
T13 construct: purchased Millipore (KinaseProfiler service)
Method: as §1

MAPK1(h) = MAPK1(h) (Homo sapiens, UniProt P27361)
Method: as §1

JNK1α1(h) = JNK1α1(h) (Homo sapiens, UniProt P45983)
Method: as §1

TAO1(h) = target: T14, TAO1(h) (Homo sapiens, UniProt Q7L7X3)
T14 construct: purchased Millipore (KinaseProfiler service)
Method: as §1

Ret(h) = target: T15, Ret(h) (Homo sapiens, UniProt P07949)
T15 construct: purchased Millipore (KinaseProfiler service)
Method: as §1

AMPKα1(h) = AMPKα1(h) (Homo sapiens, UniProt Q13131)
Method: as §1

PASK(h) = PASK(h) (Homo sapiens, UniProt Q96RG2)
Method: as §1

FGFR3(h) = FGFR3(h) (Homo sapiens, UniProt P22607)
Method: as §1

ALK(h) = ALK(h) (Homo sapiens, UniProt Q9UM73)
Method: as §1

Met(Y1248C)(h) = target: T16, Met(Y1248C)(h) (Homo sapiens, UniProt P08581, Y1230C)
T16 construct: purchased Millipore (KinaseProfiler service)
Method: as §1

EphA5(h) = target: T17, EphA5(h) (Homo sapiens, UniProt P54756)
T17 construct: purchased Millipore (KinaseProfiler service)
Method: as §1

EGFR(L858R)(h) = target: T18, EGFR(L858R)(h) (Homo sapiens, UniProt P00533, L858R)
T18 construct: purchased Millipore (KinaseProfiler service)
Method: as §1

CHK2(II57T)(h) = CHK2(II57T)(h) (Homo sapiens, UniProt O96017, I157T)
Method: as §1

CLK2(h) = CLK2(h) (Homo sapiens, UniProt P49760)
Method: as §1

IR(h), activated = IR(h), activated (Homo sapiens, UniProt P06213)
Method: as §1

T11 sequence (P07949 29-1114 V804L): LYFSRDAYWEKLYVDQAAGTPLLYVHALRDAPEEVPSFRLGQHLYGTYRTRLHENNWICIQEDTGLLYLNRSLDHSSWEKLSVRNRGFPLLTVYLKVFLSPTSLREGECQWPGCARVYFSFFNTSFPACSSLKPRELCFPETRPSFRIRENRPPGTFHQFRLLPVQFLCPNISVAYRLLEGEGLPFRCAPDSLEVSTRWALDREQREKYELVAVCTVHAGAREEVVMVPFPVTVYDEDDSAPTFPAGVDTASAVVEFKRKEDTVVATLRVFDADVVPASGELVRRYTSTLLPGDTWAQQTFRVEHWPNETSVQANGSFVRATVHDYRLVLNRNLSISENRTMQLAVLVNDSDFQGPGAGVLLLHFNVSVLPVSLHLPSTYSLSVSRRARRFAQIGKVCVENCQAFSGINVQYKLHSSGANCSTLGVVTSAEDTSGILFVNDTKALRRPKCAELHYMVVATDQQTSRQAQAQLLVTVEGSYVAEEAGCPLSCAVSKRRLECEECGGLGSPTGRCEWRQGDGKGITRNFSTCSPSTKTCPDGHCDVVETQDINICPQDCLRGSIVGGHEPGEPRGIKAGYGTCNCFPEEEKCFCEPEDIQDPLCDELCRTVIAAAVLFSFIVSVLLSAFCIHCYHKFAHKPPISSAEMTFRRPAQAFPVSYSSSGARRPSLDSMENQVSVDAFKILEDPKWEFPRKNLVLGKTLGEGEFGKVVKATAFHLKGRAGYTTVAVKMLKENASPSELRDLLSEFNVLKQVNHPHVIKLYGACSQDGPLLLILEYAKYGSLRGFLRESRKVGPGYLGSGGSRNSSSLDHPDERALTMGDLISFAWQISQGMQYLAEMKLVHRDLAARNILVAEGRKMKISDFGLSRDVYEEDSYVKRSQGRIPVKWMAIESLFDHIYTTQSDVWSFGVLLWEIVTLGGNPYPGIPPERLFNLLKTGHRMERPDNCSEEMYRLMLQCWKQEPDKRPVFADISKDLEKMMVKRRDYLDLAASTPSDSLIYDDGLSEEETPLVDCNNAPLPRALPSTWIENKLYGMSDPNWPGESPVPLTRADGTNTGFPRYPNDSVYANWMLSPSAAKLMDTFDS
T6 sequence (P29323 19-1055): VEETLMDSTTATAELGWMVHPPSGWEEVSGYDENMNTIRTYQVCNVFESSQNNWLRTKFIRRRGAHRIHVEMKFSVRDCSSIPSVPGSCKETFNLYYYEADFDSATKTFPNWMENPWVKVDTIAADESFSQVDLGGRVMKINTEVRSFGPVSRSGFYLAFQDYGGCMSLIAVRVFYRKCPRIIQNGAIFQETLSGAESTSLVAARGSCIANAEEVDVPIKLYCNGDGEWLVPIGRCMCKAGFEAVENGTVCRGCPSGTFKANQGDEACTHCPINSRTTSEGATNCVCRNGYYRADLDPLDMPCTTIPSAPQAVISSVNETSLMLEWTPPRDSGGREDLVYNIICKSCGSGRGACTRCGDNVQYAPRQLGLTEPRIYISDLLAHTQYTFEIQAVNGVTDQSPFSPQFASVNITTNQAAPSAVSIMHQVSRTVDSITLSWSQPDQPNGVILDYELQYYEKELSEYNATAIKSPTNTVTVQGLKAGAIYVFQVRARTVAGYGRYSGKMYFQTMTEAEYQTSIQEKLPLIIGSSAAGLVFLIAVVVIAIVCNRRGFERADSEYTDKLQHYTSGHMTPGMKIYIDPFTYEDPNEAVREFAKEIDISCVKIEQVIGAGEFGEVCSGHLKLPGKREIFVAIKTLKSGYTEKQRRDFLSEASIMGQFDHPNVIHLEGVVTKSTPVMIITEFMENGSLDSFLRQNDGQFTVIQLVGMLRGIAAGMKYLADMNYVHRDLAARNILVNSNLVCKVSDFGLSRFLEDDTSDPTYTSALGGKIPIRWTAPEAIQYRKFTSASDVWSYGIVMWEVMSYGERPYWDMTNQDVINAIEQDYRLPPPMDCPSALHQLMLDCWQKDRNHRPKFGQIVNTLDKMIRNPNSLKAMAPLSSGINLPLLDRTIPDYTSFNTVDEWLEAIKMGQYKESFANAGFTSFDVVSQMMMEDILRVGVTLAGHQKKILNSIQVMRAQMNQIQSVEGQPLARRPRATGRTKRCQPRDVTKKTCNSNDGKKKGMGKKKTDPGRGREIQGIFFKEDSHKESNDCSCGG
Chain of HIPK2(h) (Q9H2X6 whole entry): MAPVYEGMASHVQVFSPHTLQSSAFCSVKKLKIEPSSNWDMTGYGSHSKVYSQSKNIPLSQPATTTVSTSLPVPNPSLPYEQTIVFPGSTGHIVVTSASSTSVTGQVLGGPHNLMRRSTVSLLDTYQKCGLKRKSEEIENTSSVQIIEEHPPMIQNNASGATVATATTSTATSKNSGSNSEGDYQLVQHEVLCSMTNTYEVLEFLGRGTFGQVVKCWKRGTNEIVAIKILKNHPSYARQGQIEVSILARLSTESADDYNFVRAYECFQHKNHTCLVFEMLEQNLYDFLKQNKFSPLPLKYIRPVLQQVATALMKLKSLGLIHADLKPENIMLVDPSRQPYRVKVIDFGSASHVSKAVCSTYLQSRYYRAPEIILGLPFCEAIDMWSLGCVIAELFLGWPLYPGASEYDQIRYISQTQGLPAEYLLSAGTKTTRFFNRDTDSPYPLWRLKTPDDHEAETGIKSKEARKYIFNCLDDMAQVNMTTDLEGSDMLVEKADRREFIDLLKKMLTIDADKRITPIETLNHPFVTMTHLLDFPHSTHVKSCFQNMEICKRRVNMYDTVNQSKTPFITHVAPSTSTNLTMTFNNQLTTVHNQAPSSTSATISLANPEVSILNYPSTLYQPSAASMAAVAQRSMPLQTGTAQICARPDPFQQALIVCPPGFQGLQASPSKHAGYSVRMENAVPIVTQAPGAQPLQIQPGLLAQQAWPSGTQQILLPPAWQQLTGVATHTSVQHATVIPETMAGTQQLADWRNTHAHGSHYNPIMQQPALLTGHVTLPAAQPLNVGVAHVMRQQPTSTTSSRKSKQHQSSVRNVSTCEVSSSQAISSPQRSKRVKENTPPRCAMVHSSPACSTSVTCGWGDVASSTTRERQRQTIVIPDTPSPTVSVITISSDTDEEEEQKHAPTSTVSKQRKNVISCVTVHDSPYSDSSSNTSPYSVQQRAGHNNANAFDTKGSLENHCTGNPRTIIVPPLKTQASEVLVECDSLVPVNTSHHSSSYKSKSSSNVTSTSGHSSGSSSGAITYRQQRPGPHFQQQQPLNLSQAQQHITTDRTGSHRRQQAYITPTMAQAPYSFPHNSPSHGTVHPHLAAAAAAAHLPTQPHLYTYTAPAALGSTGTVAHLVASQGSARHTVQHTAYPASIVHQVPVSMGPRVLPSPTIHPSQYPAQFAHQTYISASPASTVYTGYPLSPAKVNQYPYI
Chain of Aurora-B(h) (Q96GD4 whole entry): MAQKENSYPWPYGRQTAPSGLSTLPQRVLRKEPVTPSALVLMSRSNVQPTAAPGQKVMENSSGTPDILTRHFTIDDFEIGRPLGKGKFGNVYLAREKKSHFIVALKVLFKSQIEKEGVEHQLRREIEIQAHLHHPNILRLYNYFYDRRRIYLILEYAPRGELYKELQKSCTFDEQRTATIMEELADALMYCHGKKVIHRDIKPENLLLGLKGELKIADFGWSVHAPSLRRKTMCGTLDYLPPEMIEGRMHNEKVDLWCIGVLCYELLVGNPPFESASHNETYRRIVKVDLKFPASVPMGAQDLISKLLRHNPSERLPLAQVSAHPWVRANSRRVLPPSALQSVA
Chain of PKGIβ(h) (Q13976 1-686 isoform Q13976-2): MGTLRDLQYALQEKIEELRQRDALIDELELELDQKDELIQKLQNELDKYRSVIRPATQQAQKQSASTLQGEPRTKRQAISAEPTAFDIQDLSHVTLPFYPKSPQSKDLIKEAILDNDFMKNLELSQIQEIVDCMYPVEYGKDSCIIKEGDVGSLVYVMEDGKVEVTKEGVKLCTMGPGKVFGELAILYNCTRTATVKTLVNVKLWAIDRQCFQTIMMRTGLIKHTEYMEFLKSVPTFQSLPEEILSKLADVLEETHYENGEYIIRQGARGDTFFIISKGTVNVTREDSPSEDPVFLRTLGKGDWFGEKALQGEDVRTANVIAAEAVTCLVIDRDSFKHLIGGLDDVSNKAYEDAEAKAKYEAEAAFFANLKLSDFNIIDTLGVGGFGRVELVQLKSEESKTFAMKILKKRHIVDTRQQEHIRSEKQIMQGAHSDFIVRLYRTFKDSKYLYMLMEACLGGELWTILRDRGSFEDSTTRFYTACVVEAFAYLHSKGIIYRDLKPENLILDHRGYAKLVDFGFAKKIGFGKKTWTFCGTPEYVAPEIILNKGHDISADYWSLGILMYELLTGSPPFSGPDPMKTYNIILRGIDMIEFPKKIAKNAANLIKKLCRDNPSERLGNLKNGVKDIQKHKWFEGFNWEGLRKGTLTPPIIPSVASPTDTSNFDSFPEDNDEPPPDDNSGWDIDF
Chain of PKCδ(h) (Q05655 whole entry): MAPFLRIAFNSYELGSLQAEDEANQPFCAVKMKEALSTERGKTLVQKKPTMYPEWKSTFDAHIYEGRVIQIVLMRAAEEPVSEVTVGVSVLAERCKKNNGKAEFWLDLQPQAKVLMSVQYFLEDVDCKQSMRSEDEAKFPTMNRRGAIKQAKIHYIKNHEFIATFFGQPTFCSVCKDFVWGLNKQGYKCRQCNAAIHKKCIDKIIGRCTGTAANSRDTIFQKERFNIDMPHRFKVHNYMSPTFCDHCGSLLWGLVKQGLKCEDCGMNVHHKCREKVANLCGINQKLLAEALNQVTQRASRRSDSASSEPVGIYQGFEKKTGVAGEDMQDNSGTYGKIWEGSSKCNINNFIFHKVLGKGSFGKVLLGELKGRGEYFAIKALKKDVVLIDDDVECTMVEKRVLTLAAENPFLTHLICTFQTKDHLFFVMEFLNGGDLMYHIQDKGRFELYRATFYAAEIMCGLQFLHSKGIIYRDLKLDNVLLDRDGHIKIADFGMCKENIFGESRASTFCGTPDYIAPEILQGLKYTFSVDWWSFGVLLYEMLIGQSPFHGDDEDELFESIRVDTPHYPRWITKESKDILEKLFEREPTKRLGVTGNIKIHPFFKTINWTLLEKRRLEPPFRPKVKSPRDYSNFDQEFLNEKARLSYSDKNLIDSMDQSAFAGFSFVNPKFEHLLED
T15 sequence (P07949 29-1114): as the sequence (P07949 29-1114 V804L) above, with L776V counted along it

Activity % (Src(T341M)(h)): 1%
Activity % (Mer(h)): 2%
Activity % (ASK1(h)): 112%
Activity % (PKGIβ(h)): 111%
Activity % (SAPK2a(h)): 79%
Activity % (ROCK-II(h)): 58%
Activity % (Tec(h) activated): 52%
Activity % (CK2(h)): 85%
Activity % (EphB2(h)): 21%
Activity % (PKCδ(h)): 90%
Activity % (CSK(h)): 75%
Activity % (Ros(h)): 46%
Activity % (PDGFRα(V561D)(h)): 8%
Activity % (mTOR/FKBP12(h)): 63%
Activity % (Bmx(h)): 1%
Activity % (RIPK2(h)): 90%
Activity % (TGFBR1(h)): 44%
Activity % (Ab1(Y253F)(h)): −2%
Activity % (Fyn(h)): 1%
Activity % (Aurora-B(h)): 1%
Activity % (HIPK2(h)): 101%
Activity % (Tie2(Y897S)(h)): 3%
Activity % (Ret(V804L)(h)): −4%
Activity % (Fes(h)): 32%
Activity % (SRPK1(h)): 96%
Activity % (MAPK1(h)): 128%
Activity % (JNK1α1(h)): 92%
Activity % (TAO1(h)): 65%
Activity % (Ret(h)): −1%
Activity % (AMPKα1(h)): 17%
Activity % (PASK(h)): 91%
Activity % (FGFR3(h)): 0%
Activity % (ALK(h)): 17%
Activity % (Met(Y1248C)(h)): 20%
Activity % (EphA5(h)): 122%
Activity % (EGFR(L858R)(h)): 72%
Activity % (CHK2(II57T)(h)): 112%
Activity % (CLK2(h)): 90%
Activity % (IR(h), activated): 13%
Compound: Cc1cc2c(F)c(Oc3nc(Nc4cc(C5CC5)[nH]n4)cc(N4CCN(C)CC4)n3)cc(F)c2[nH]1 [NTW-3475]
